Laboratory results taken from ChEMBL document CHEMBL2331258, “HR-MALDI-MS imaging assisted screening of β-carboline alkaloids discovered from Mycena metata” (2013).
Activity calls are given as the source filed them. The calls are words filed in the database; no cut-off is given here.

Tests used:
Brevibacillus brevis [1] = assay: Antibacterial activity against Bacillus brevis NCCB 89173 assessed as diameter of growth inhibition zone at 0.5 umol at 37 degC after 24 hrs by agar diffusion assay; format: functional
Bacillus pumilus [2] = assay: Antibacterial activity against Bacillus pumilus assessed as diameter of growth inhibition zone at 0.5 umol at 26 degC after 24 hrs by agar diffusion assay; format: functional
Bacillus subtilis [3] = assay: Antibacterial activity against Bacillus subtilis NCCB 1089 assessed as diameter of growth inhibition zone at 0.5 umol at 37 degC after 24 hrs by agar diffusion assay; format: functional
Saccharomyces cerevisiae = assay: Antibacterial activity against Saccharomyces cerevisiae assessed as growth inhibition at 0.5 umol at 26 degC after 24 hrs by agar diffusion assay; format: functional, organism-based
Bacillus subtilis [4] = assay: Antibacterial activity against Bacillus subtilis NCCB 1089 assessed as growth inhibition at 0.5 umol at 37 degC after 24 hrs by agar diffusion assay; format: functional, organism-based
Cladosporium cucumerinum = assay: Antibacterial activity against Cladosporium cucumerinum CBS 177.54 assessed as growth inhibition at 0.5 umol at 18 degC after 3 to 5 days by agar diffusion assay; format: functional, organism-based
Bacillus pumilus [5] = assay: Antibacterial activity against Bacillus pumilus assessed as growth inhibition at 0.5 umol at 26 degC after 24 hrs by agar diffusion assay; format: functional, organism-based
Brevibacillus brevis [6] = assay: Antibacterial activity against Bacillus brevis NCCB 89173 assessed as growth inhibition at 0.5 umol at 37 degC after 24 hrs by agar diffusion assay; format: functional, organism-based
Escherichia coli = assay: Antibacterial activity against Escherichia coli assessed as growth inhibition at 0.5 umol at 37 degC after 24 hrs by agar diffusion assay; format: functional, organism-based

Compound: NCCC[C@H](N)CC(=O)N[C@@H]1[C@@H](O)[C@H](OC(N)=O)[C@@H](CO)O[C@H]1/N=C1\N[C@@H]2[C@H](O)CNC(=O)[C@H]2N1 [NOURSEOTHRICIN]
- diameter of the inhibition zone (DIZ) (Brevibacillus brevis [1]): 25 mm
- diameter of the inhibition zone (DIZ) (Bacillus pumilus [2]): 25 mm
- diameter of the inhibition zone (DIZ) (Bacillus subtilis [3]): 14 mm

Compound: C[C@@H](O)[C@H](NC(=O)c1cc2c([nH]c3ccc(O)cc32)c(CCC(=O)N2CCC[C@H]2C(=O)O)n1)C(=O)O
- growth inhibition (GI) (Saccharomyces cerevisiae): inactive
- growth inhibition (GI) (Bacillus subtilis [4]): inactive
- growth inhibition (GI) (Cladosporium cucumerinum): inactive
- growth inhibition (GI) (Bacillus pumilus [5]): inactive
- growth inhibition (GI) (Brevibacillus brevis [6]): inactive
- growth inhibition (GI) (Escherichia coli): inactive
